Assay results taken from PMC5474674, “D-BMAP18 Antimicrobial Peptide Is Active In vitro, Resists to Pulmonary Proteases but Loses Its Activity in a Murine Model of Pseudomonas aeruginosa Lung Infection” (Frontiers in Chemistry, 2017).
≈ marks a conversion by molar mass, not a printed value. Where a SMILES comes first, the peptide text is derived from it. [ ]: non-standard residue; d: D form.

Legend:
[1] = tested on: S. maltophilia; type: cell-based, Stenotrophomonas maltophilia; conditions: 24 h
Description: P. aeruginosa, S. maltophilia, and Staphylococcus aureus strains were originally isolated from respiratory specimens of CF patients admitted to the “Bambino Gesù” Children Hospital in Rome and previously tested with AMPs (Pompilio et al., [2012]). P. aeruginosa RP73, and PAO1 were tested as reference strains.
(§1) MIC values were determined using the broth microdilution method.

[2] = tested on: P. aeruginosa RP73; type: in vivo, mouse; conditions: mouse, in vivo
Description: C57/Bl6NCrl mice (n = 8/group) were intratracheally challenged with 1 × 10^7 cells P. aeruginosa RP73 clinical strain, and 5 min later a single dose of D-BMAP18 at different concentrations (0.5, 1, and 2 mg/kg) was intratracheally administrated. Sterile distilled water alone or tobramycin [10 mg/kg] (Sigma-Aldrich S.r.l.), were used respectively as negative and positive control. […] Subsequently, lungs were homogenized (24,000 rpm) on ice in 1 ml of sterile PBS by using Ultra-Turrax T25-Basic homogenizer (IKA-Werke GmbH & Co. KG, Germany). Ten-fold serial dilutions of lung homogenates were plated on MH agar (Oxoid SpA), and the number of colony-forming units (CFU) was counted after incubation at 37°C for 24 h.

[3] = tested on: S. maltophilia SM126; experiment: MIC/MBC broth microdilution; type: cell-based, Stenotrophomonas maltophilia; conditions: D-BMAP18, strain SM126, n = 6
Description: as §1

[4] = tested on: S. maltophilia SM110; experiment: MIC/MBC broth microdilution; type: cell-based, Stenotrophomonas maltophilia; conditions: D-BMAP18, strain SM110, n = 6
Description: as §1

[5] = tested on: S. maltophilia SM139; experiment: MIC/MBC broth microdilution; type: cell-based, Stenotrophomonas maltophilia; conditions: D-BMAP18, strain SM139, n = 6
Description: as §1

[6] = tested on: S. maltophilia SM123; experiment: MIC/MBC broth microdilution; type: cell-based, Stenotrophomonas maltophilia; conditions: D-BMAP18, strain SM123, n = 6
Description: as §1

[7] = tested on: S. maltophilia SM143; experiment: MIC/MBC broth microdilution; type: cell-based, Stenotrophomonas maltophilia; conditions: D-BMAP18, strain SM143, n = 6
Description: as §1

[8] = tested on: S. maltophilia SM106; experiment: MIC/MBC broth microdilution; type: cell-based, Stenotrophomonas maltophilia; conditions: D-BMAP18, strain SM106, n = 6
Description: as §1

[9] = tested on: S. maltophilia SM136; experiment: MIC/MBC broth microdilution; type: cell-based, Stenotrophomonas maltophilia; conditions: D-BMAP18, strain SM136, n = 6
Description: as §1

[10] = tested on: S. maltophilia SM103; experiment: MIC/MBC broth microdilution; type: cell-based, Stenotrophomonas maltophilia; conditions: D-BMAP18, strain SM103, n = 6
Description: as §1

[11] = tested on: S. maltophilia SM120; experiment: MIC/MBC broth microdilution; type: cell-based, Stenotrophomonas maltophilia; conditions: D-BMAP18, strain SM120, n = 6
Description: as §1

[12] = tested on: S. maltophilia SM130; experiment: MIC/MBC broth microdilution; type: cell-based, Stenotrophomonas maltophilia; conditions: D-BMAP18, strain SM130, n = 6
Description: as §1

[13] = broth microdilution, MH broth, 37°C 24 h
[14] = kills at least 99.9% of inoculum

Structure (SMILES): CC(C)C[C@@H](NC(=O)[C@@H](CCCCN)NC(=O)[C@@H](CCCCN)NC(=O)[C@@H](Cc1ccccc1)NC(=O)[C@@H](CC(C)C)NC(=O)[C@@H](CCCCN)NC(=O)[C@@H](CCCCN)NC(=O)[C@@H](Cc1ccccc1)NC(=O)[C@@H](CCCCN)NC(=O)[C@@H](CCCCN)NC(=O)[C@@H](CCCNC(=N)N)NC(=O)[C@@H](Cc1ccccc1)NC(=O)[C@@H](CCCNC(=N)N)NC(=O)[C@@H](CCCCN)NC(=O)[C@@H](Cc1ccccc1)NC(=O)[C@@H](CCCNC(=N)N)NC(=O)CN)C(=O)N[C@H](CO)C(N)=O [D-BMAP18] (H-G[dR][dF][dK][dR][dF][dR][dK][dK][dF][dK][dK][dL][dF][dK][dK][dL][dS]-NH2)
- MIC90 [1]: 16 µg/mL (≈ 6.83 µM)
- trend between dose and macroscopic lung damage [2]: not statistically significant
- MIC [3, 13]: 16 µg/mL (≈ 6.83 µM)
- MBC [3, 14]: 32 µg/mL (≈ 13.7 µM)
- MIC [4, 13]: 4 µg/mL (≈ 1.71 µM)
- MBC [4, 14]: 4 µg/mL (≈ 1.71 µM)
- MIC [5, 13]: 8 µg/mL (≈ 3.42 µM)
- MBC [5, 14]: 8 µg/mL (≈ 3.42 µM)
- MIC [6, 13]: 16 µg/mL (≈ 6.83 µM)
- MBC [6, 14]: 16 µg/mL (≈ 6.83 µM)
- MIC [7, 13]: 8 µg/mL (≈ 3.42 µM)
- MBC [7, 14]: 8 µg/mL (≈ 3.42 µM)
- MIC [8, 13]: 32 µg/mL (≈ 13.7 µM)
- MBC [8, 14]: 32 µg/mL (≈ 13.7 µM)
- MIC [9, 13]: 8 µg/mL (≈ 3.42 µM)
- MBC [9, 14]: 16 µg/mL (≈ 6.83 µM)
- MIC [10, 13]: 4 µg/mL (≈ 1.71 µM)
- MBC [10, 14]: 4 µg/mL (≈ 1.71 µM)
- MIC [11, 13]: 8 µg/mL (≈ 3.42 µM)
- MBC [11, 14]: 16 µg/mL (≈ 6.83 µM)
- MIC [12, 13]: 8 µg/mL (≈ 3.42 µM)
- MBC [12, 14]: 16 µg/mL (≈ 6.83 µM)
